From patent US12714097B2, “Compositions and systems for disinfection” (Markesbery Blue Pearl LLC, priority 2017, dated 2026)
Values after ≈ are worked out from the molar mass of the structure shown.

Legend:
[1] = cited from earlier work; for Sol (Exp): experimental water solubility; for solubility: aqueous, at 25° C.
[2] = cited from earlier work; for Log P: known values used for standard curve; for log P Exp.: experimentally determined, database entry
[3] = Experimental water solubility of alcohol compounds at 25° C.

Row | Compound | Sol (Exp) ([1]; 25° C.) | log P Exp. [2] | other results
1 | CC(C)CC(C)(C)O [2,4-Dimethyl-2-pentanol] | 13.6 g/L |  | 
2 | CCCC(C)O (centres unmarked) [2-pentanol] | 44.6 g/L |  | Log P [2]: 1.19
3 | CC(C)CCCO [4-Methyl-1-pentanol] | 7.6 g/L |  | 
4 | CC(C)C(O)C(C)C [2,4-Dimethyl-3-pentanol] | 7 g/L |  | 
5 | CCC(C)C(C)(C)O (centres unmarked) [2,3-Dimethyl-2-pentanol] | 15.7 g/L |  | 
6 | CCCCCCCCO [n-octanol] |  |  | solubility [1]: 0.5 grams per liter
7 | CC(C)=CCO [3-Methyl-2-buten-1-ol] |  | 1.244 | 
8 | CCCCC(C)O (centres unmarked) [2-hexanol] | 13.7 g/L | 1.76 | Log P [2]: 1.76
9 | CC=CC=CCO [2,4-Hexadien-1-ol] |  | 1.334 | 
10 | CC(C)C(C)(C)O [2,3-Dimethyl-2-butanol] | 43.5 g/L |  | 
11 | CCCCCO [n-pentanol] | 22 g/L | 1.51 | Log P [2]: 1.51; solubility [1]: 22 grams per liter; solubility converted to percent by weight of an aqueous composition [3]: 2.2 % by weight
12 | CCC(C)(C)CO [2,2-Dimethyl-1-butanol] | 7.6 g/L |  | 
13 | CCC(CC)CO [2-Ethyl-1-butanol] | 4 g/L |  | 
14 | CCC(O)CC [3-pentanol] | 51.5 g/L | 1.21 | Log P [2]: 1.21
15 | CCCC(O)CC (centres unmarked) [3-hexanol] | 16.1 g/L | 1.65 | Log P [2]: 1.65; Solubility (at 25° C.) ([1]; water, 25° C., known values used for standard curve): 16.1 mg/mL (≈ 158 mM)
16 | CC(C)CCO [3-methyl-1-butanol] | 26.7 g/L |  | 
17 | Cc1ccccc1O [2-methyl phenol] | 25.9 g/L |  | 
